Measured values reported in article PMC10333884, “Large‐scale phosphomimetic screening identifies phospho‐modulated motif‐based protein interactions” (Molecular Systems Biology, 2023).
Residues, ends and D or L forms follow the SMILES beside them.

Tests used:
PDCD6IP Alix V domain [1] = target: T1, PDCD6IP Alix V domain (Homo sapiens, UniProt Q8WUM4); assay: FP displacement assay, PDCD6IP Alix V domain; format: binding; conditions: probe FITC-HIV1_Gag 5 nM, 50 mM sodium phosphate pH 7.4, room temperature, at least three technical replicates, read-out: KD values ± SEM
T1 construct: GST (cleaved yes); made in house; host or cells: Escherichia coli BL21-Gold(DE3)
T1 sequence (Q8WUM4 360-702): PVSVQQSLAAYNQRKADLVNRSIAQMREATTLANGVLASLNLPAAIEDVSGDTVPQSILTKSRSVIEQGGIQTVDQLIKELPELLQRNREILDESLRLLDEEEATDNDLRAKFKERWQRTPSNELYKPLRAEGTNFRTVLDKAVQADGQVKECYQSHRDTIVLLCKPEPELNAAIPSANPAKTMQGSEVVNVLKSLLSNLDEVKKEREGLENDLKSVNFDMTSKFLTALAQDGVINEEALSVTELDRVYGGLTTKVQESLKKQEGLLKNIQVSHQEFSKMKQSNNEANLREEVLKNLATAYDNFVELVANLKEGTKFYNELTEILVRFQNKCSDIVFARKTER
Protocol: (§1) FP experiments were performed as described previously (Kliche et al, [2021]). Shortly, in order to monitor the binding event, FITC‐labelled peptides were used (excitation 495 nm, emission: 535 nm) and the FP signal was recorded in mP on a SpectraMax iD5 Multi‐Mode Microplate Reader (Molecular Devices) by measuring the emitted light in two angels. The measurements were performed at room temperature and prepared in nonbinding black half area 96‐well microplates (Corning®; 50 μl/well). For measuring direct binding, that is saturation curves, a 1:1 dilution series of protein domain (25 μl/well) was generated in 50 mM sodium phosphate buffer pH 7.4 and the measurement performed with 5 nM FITC‐labelled peptide (25 μl/well). The buffer‐corrected values were subsequently plotted with PRISM and fitted to the quadratic equation (Gianni et al, [2005]).
(§2) The 1:1 dilution series in this experiment was performed with the unlabelled peptide in 50 mM sodium phosphate buffer pH 7.4, so that each well‐contained unlabelled peptide (25 μl) at a certain concentration and pre‐formed complex (25 μl). The KD values of this indirectly monitored binding event were calculated as described previously (Nikolovska‐Coleska et al, [2004]). All measurements were at least in technical triplicates as well as biological duplicates when indicated. An amplitude shift between repeat measurements in the displacement experiments was occasionally observed due to variations in the protein preparations. If that was the case, the “active” protein concentration was back‐calculated according to the quadratic equation from the saturation curves performed in parallel. By comparing the active protein concentrations in the complex between different protein preparations, the amplitude was normalised.

PDCD6IP Alix V domain [2] = target: T1, PDCD6IP Alix V domain; assay: Phosphomimetic ProP-PD selection, PDCD6IP Alix V domain; conditions: phosphomimetic enrichment score of the wild-type/phosphomimetic (E) pair at the phosphosite, PM_HD2 phage selection; positive = phosphomimetic enhances binding; P-value in brackets not taken
Protocol: (§3) Selections using the PM_HD2 phage library were performed as described previously with minor modification to the original protocol. The corresponding tag protein (either GST or MBP) was first used during negative selections. Selections were run for 4 days. • Bait and tag proteins (10–15 μg in 100 μl PBS) were immobilised in 96‐well MaxiSorb plate (NUNC) o.n. at 4°C. • Escherichia coli OmniMax bacteria were grown in 2YT medium supplemented with tetracycline (100 μg/ml) at 37°C and 200 rpm. • Plates with immobilised bait/tag proteins were blocked with 0.5% BSA in PBS for 1 h at 4°C. • Phage library (10 μl/well) was prepared by diluting 10× with PBS and adding one‐fourth of the volume of PEG/NaCl. For phage precipitation, prepared library was incubated for 10 min on ice followed by centrifugation for 10 min at 10,000 × g at 4°C. […]
(§4) Based on the results from phage pool ELISAs, samples from selection Day 3 and 4 were selected for NGS, as described previously (Benz et al, [2022]). • Peptide coding regions were amplified and dual‐barcoded by PCR. […] From the columns, samples were eluted with 30 μl TE (10 mM Tris–HCl, 1 mM EDTA. pH 7.5) buffer and quantified with Quant‐iT PicoGreen dsDNA Assay Kit. • Samples were sequenced on MiSeq (MSC 2.5.0.5/RTA 1.18.54) with a 151 nt (Read1) setup using “Version3” chemistry. […]

SNX27 PDZ [3] = target: T2, SNX27 PDZ (Homo sapiens, UniProt Q96L92); assay: FP displacement assay, SNX27 PDZ (MBP-tagged); format: binding; conditions: for Kd: MBP-tagged domain, probe FITC-SYT16 5 nM, 50 mM sodium phosphate pH 7.4, room temperature, at least three technical replicates, read-out: KD values ± SEM
T2 construct: SNX27_PDZ__Q96L92_40_141; made in house; host or cells: Escherichia coli BL21-Gold(DE3)
Protocol: For FP, ITC and crystallisation, the tag was removed with the appropriate protease either on beads (0.1 mg/ml thrombin (Cytiva) in PBS, 1 mM dithiothreitol (DTT)) or by dialysis in cleavage buffer (Human Rhinovirus (HRV) 3C protease: 50 mM Tris–HCl pH 7.4, 150 mM NaCl, 1 mM β‐mercaptoethanol), both procedures were overnight. In case of HRV protease cleavage, the tag was separated from the target protein domain by reverse ion metal affinity chromatography using Ni^2+ beads for purification, whereas thrombin was removed using a benzamidine column (Cytiva). Affinity measurements for SNX27 PDZ were performed on the MBP‐tagged construct, as well as PIN1 WW domain on the GST‐tagged construct. For FP and ITC, proteins were dialysed in 50 mM sodium phosphate buffer pH 7.4, 1 mM DTT. For crystallisation of the NTD of clathrin, the protein was further purified by a S200 Sepharose column (Cytiva) using 20 mM Tris–HCl pH 7.4, 150 mM NaCl and 1 mM DTT.
as §1, §2

SNX27 PDZ [4] = target: T2, SNX27 PDZ; assay: Phosphomimetic ProP-PD selection, SNX27 PDZ; conditions: phosphomimetic enrichment score of the wild-type/phosphomimetic (E) pair at the phosphosite, PM_HD2 phage selection; positive = phosphomimetic enhances binding; P-value in brackets not taken
Protocol: as §3, §4

RANBP2 RanBD4 [5] = target: T3, RANBP2 RanBD4 (Homo sapiens, UniProt P49792); assay: FP displacement assay, RANBP2 RanBD4; format: binding; conditions: probe FITC-C7orf25 5 nM, 50 mM sodium phosphate pH 7.4, room temperature, at least three technical replicates, read-out: KD values ± SEM
T3 construct: GST (cleaved yes); made in house; host or cells: Escherichia coli BL21-Gold(DE3)
T3 sequence (P49792 2924-3050): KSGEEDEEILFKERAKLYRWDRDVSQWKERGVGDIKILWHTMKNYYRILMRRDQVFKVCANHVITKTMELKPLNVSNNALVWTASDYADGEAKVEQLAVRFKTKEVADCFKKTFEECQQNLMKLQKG
Protocol: as §1, §2

RANBP2 RanBD4 [6] = target: T3, RANBP2 RanBD4; assay: Phosphomimetic ProP-PD selection, RANBP2 RanBD4; conditions: phosphomimetic enrichment score of the wild-type/phosphomimetic (E) pair at the phosphosite, PM_HD2 phage selection; positive = phosphomimetic enhances binding; P-value in brackets not taken
Protocol: as §3, §4

Structure (SMILES)	Kd (PDCD6IP Alix V domain [1])	PES (PDCD6IP Alix V domain [2])	Kd (SNX27 PDZ [3])	PES (SNX27 PDZ [4])	Kd (RANBP2 RanBD4 [5])	PES (RANBP2 RanBD4 [6])	further results
CC[C@H](C)[C@H](NC(=O)[C@H](CCCCN)NC(=O)[C@H](CC(C)C)NC(=O)[C@@H]1CCCN1C(=O)[C@H](CCC(=O)O)NC(=O)[C@@H](NC(=O)[C@H](CCC(N)=O)NC(=O)[C@@H]1CCCN1C(=O)[C@H](Cc1ccc(O)cc1)NC(=O)[C@H](CC(C)C)NC(=O)[C@@H]1CCCN1C(=O)[C@H](CCCNC(=N)N)NC(=O)[C@H](CC(C)C)NC(=O)[C@@H]1CCCN1C(=O)[C@H](CO)NC(=O)[C@H](C)NC(C)=O)[C@@H](C)CC)C(N)=O [FOXK1_212–227 E] (Ac-ASPLRPLYPQIEPLKI-NH2)	13 ± 1 µM	2.9 (0.04)	–	–	–	–	–
CSCC[C@H](NC(=O)CNC(C)=O)C(=O)N[C@H](C(=O)N[C@@H](CO)C(=O)N[C@@H](CCC(=O)O)C(=O)N[C@H](C(=O)N[C@@H](CO)C(=O)N[C@@H](Cc1ccccc1)C(=O)N[C@@H](CC(N)=O)C(=O)NCC(=O)NCC(=O)N[C@@H](Cc1ccc(O)cc1)C(N)=O)[C@@H](C)O)C(C)C [DAXX606–616 E] (Ac-GMVSETSFNGGY-NH2)	–	–	23 ± 4 µM	6 (0.00063)	–	–	IC50 (SNX27 PDZ [3]; Fig 4B, SNX27 PDZ, technical triplicates, read-out: IC50 values of displacement curves, with SEM): 117 ± 25 µM
CC(=O)N[C@@H](CCCCN)C(=O)N[C@@H](Cc1ccc(O)cc1)C(=O)N[C@@H](CO)C(=O)N[C@@H](CC(=O)O)C(=O)N[C@@H](CC(=O)O)C(=O)N[C@H](C(=O)N1CCC[C@H]1C(=O)N[C@@H](CC(C)C)C(=O)N1CCC[C@H]1C(=O)N[C@@H](CCC(=O)O)C(=O)N1CCC[C@H]1C(=O)N[C@@H](CO)C(=O)N[C@@H](Cc1ccc(O)cc1)C(=O)N[C@@H](CCCCN)C(=O)N[C@@H](Cc1ccc(O)cc1)C(=O)N[C@@H](CC(N)=O)C(N)=O)[C@@H](C)O [DHX38_260–275 E] (Ac-KYSDDTPLPEPSYKYN-NH2)	–	–	–	–	470 ± 35 µM	3 (0.04)	–

Continued, in another order:

Kd (PDCD6IP Alix V domain [1])	PES (PDCD6IP Alix V domain [2])	Kd (SNX27 PDZ [3])	PES (SNX27 PDZ [4])	Kd (RANBP2 RanBD4 [5])	PES (RANBP2 RanBD4 [6])	Structure (SMILES)	further results
–	–	680 ± 40 µM	−6 (0.00063)	–	–	CC(=O)N[C@@H](CC(N)=O)C(=O)N[C@@H](CC(C)C)C(=O)N[C@@H](CC(C)C)C(=O)N[C@@H](CC(C)C)C(=O)N[C@@H](CCC(=O)O)C(=O)N[C@@H](CCCNC(=N)N)C(=O)N[C@@H](CC(=O)O)C(=O)N[C@H](C(=O)N[C@@H](CCC(=O)O)C(=O)N[C@@H](Cc1ccccc1)C(=O)N[C@H](C(=O)N[C@H](C(=O)N[C@@H](C)C(=O)N1CCC[C@H]1C(=O)N[C@@H](CC(=O)O)C(=O)N[C@@H](Cc1ccc(O)cc1)C(N)=O)C(C)C)[C@@H](C)O)[C@@H](C)O [CDC25C30–44 E] (Ac-NLLLERDTEFTVAPDY-NH2)	–
88 ± 7 µM	0.66 (0.34)	–	–	–	–	CC(=O)N[C@H](C(=O)N[C@@H](CCC(=O)O)C(=O)N1CCC[C@H]1C(=O)N[C@@H](CC(C)C)C(=O)N[C@H](C(=O)N[C@@H](CO)C(=O)N[C@@H](CC(C)C)C(=O)N[C@@H](Cc1ccc(O)cc1)C(=O)N1CCC[C@H]1C(=O)N[C@@H](C)C(=O)N[C@@H](CC(C)C)C(=O)N[C@@H](CCC(=O)O)C(=O)N[C@@H](C)C(=O)N[C@@H](CCCNC(=N)N)C(=O)N[C@@H](C)C(=O)N[C@@H](CC(C)C)C(N)=O)C(C)C)[C@@H](C)O [OTUD5_507–522 E] (Ac-TEPLVSLYPALEARAL-NH2)	–
–	–	–	–	1080 µM	−4 (0.0044)	CC(=O)N[C@@H](Cc1c[nH]cn1)C(=O)N[C@@H](CC(C)C)C(=O)N1CCC[C@H]1C(=O)N[C@@H](CC(C)C)C(=O)N[C@@H](CC(N)=O)C(=O)N[C@@H](CCC(=O)O)C(=O)N1CCC[C@H]1C(=O)N[C@@H](CC(C)C)C(=O)N1CCC[C@H]1C(=O)NCC(=O)N[C@@H](CO)C(=O)N[C@@H](CCC(=O)O)C(=O)N[C@@H](CC(C)C)C(=O)N[C@H](C(=O)N[C@@H](CCCCN)C(=O)N[C@@H](Cc1ccc(O)cc1)C(N)=O)[C@@H](C)O [INTS6_145–159 E] (Ac-HLPLNEPLPGSELTKY-NH2)	–
